# Laboratory results from ChEMBL document CHEMBL5726915, “Substituted pyrimidines containing acidic groups as TLR7 modulators” (2019).
# Target: T1, Toll-like receptor 7 (Homo sapiens, UniProt Q9NYK1)
# T1 sequence (Q9NYK1 whole entry): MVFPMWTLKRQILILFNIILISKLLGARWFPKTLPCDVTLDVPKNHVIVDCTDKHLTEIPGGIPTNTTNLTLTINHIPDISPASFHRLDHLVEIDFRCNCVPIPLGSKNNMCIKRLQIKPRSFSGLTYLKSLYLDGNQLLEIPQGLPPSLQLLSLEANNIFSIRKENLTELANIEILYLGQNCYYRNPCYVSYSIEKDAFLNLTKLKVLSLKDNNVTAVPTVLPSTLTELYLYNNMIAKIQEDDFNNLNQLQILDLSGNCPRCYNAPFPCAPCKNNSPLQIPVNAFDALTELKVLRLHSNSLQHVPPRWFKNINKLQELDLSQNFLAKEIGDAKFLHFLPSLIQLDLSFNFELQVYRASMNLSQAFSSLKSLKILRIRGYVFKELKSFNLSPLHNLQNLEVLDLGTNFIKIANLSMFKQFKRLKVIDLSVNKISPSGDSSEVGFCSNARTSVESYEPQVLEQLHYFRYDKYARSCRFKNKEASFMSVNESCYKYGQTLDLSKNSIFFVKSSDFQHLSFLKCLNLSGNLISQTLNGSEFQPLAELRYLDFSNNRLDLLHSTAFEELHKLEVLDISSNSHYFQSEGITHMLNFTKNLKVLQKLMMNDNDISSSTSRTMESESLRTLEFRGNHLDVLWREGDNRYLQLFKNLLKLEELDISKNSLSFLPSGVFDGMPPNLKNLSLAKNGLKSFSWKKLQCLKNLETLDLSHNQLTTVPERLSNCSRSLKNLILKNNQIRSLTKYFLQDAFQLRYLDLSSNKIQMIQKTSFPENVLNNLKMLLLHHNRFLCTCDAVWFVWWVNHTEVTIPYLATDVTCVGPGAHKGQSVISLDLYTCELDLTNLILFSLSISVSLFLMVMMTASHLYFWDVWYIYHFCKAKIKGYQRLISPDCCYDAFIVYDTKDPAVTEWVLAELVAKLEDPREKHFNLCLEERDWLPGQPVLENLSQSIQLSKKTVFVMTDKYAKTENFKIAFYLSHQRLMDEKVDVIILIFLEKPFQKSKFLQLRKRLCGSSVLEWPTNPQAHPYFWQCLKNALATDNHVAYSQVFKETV
# Experiment: HEK TLR7 Assay: HEK-Blue TLR7 cells were purchased from Invivogen (San Diego, Calif.). The following description was taken from the product information sheet."HEK-Blue hTLR7 cells are designed for studying the stimulation of human TLR7 (hTLR7) by monitoring the activation of NF-kB. HEK-Blue hTLR7 cells were obtained by co-transfection of the hTLR7 gene and an optimized secreted embryonic alkaline phosphatase (SEAP) reporter gene into HEK293 cells. The SEAP reporter gene is placed under the control of the IFN-b minimal promoter fused to five NF-kB and AP-1-binding sites. Stimulation with a TLR7 ligand activates NF-kB and AP-1 which induce the production of SEAP, which is detected by the HEK-Blue™ Detection cell culture medium."A typical assay protocol involved the following steps:1. Cells were cultured according to the product information sheet.2. 10 mM compound stock in DMSO were first diluted to 3 mM and then 3-fold serially diluted using DMSO to afford a 10-pt dilution.3. 3 μl of the diluted DMSO were added to 57 μl HEK-Blue Detection media for a further 20-fold dilution.4. 10 μl of the diluted compound in assay media were added into 40 μl cell culture (in HEK-Blue™ Detection media) in 384-well plate. Final cell concentration=8,000 cells per well.5. The plates were incubated at 37° C. in 5% CO2 for 16 h. SEAP was determined using a spectrophotometer at 620-655 nm.
row,EC50 [µM],SMILES
1,< 0.1,CCCC[C@@H](CCSC)Nc1nc(N)nc(C)c1Cc1cc(C(=O)NCCCP(=O)(O)O)ccc1OC
2,< 0.1,CCCC[C@@H](CCSC)Nc1nc(N)nc(C)c1Cc1cc(Cc2nn[nH]n2)ccc1OC
3,< 0.1,CCCC[C@@H](CCS(C)(=O)=O)Nc1nc(N)nc(C)c1Cc1cc(Cc2nn[nH]n2)ccc1OC
